Data on two molecules can be found in patent publication US20030206892A1, “Methods of modulating activity of DXR” (priority 2000, published 2003).

Common to all, as to type: cell-based
One experiment has as its system E. coli DH5α. Kind of experiment: E. coli DXR MIC experiment, parent strain. To be noted: Escherichia coli, LB, overnight at 37° C., read-out: E. coli DXR MICs, E. coli DH5α. The protocol: (§1) The MIC protocol used techniques well known to those skilled in the art. All strains were grown overnight in LB with appropriate selection. The compounds are mixed or put in contact with DMSO. Fifty μl of LB was placed in each well of the microtiter plate, except in Column 1. To obtain a top concentration of 256 μl/mil of compound after the inoculum is added: 10 μl of a 5.12 mg/ml stock is mixed with 90 μl of LB. This mixture was placed in the first well of its assigned row of a 96-well plate. The compound was then serially diluted 1:2 by taking 50 μl from the first well in the row and mixing it with the second well of the same row, Column 2. Then, 50 μl from that well was mixed with the third well in the row, Column 3 and so on until Column 11. Fifty μl of the serial dilution from Column 11 was discarded. The final well in the row, column 12, was the growth control. No compound was placed in column 12. The overnight culture was diluted 1:50 into LB. Fifty μl of this culture dilution was added to every well of the microtiter plate. This dilutes the inoculum and drug 1:2. The final inoculum was approximately 1×10^5 cells/ml. The 96-well pates are then incubated overnight at 37° C.

The next experiment deals with E. coli DH5α + (pET28). Kind of experiment: E. coli DXR MIC experiment, empty vector strain. To be noted: Escherichia coli, LB, overnight at 37° C., read-out: E. coli DXR MICs, E. coli DH5α + (pET28). The protocol: as §1
Experiment [1] relates to E. coli DH5α + (pET28::dxr), H. influenzae dxr. The experiment is described as follows: H. influenzae DXR MIC experiment, strain expressing H. influenzae DXR. The protocol:
as §1, with “Fifty μl of LB was placed in each well of the microtiter plate, except in Column 1. To obtain a top concentration of 256 μl/mil of compound after the inoculum is added: 10 μl of a 5.12 mg/ml stock is mixed with 90 μl of LB.” left out, “The overnight culture was diluted 1:50 into LB.” left out

Experiment [2] concerns E. coli DH5α + (pET28::dxr), E. coli dxr. The experiment is described as follows: E. coli DXR MIC experiment, strain overexpressing E. coli DXR. The protocol:
as §1

SMILES strings stand for the structures. Values after ≈ are worked out from the molar mass of the structure shown.

In the case of `CC1(C)S[C@@H]2[C@H](NC(=O)[C@H](N)c3ccc(O)cc3)C(=O)N2[C@H]1C(=O)O` [Amoxicillin], in the experiment with E. coli DH5α, the MIC came out at 16 µg/mL (≈ 43.8 µM).

Take `O=CN(O)CCCP(=O)(O)O` [Fosmidomycin]: the MIC in the experiment on E. coli DH5α came to 16 µg/mL (≈ 87.4 µM); in the experiment on E. coli DH5α + (pET28) it was 16 µg/mL; in experiment [1] (Escherichia coli, read-out: H. influenzae DXR MICs, E. coli DH5α + (pET28::dxr)), 256 µg/mL; in experiment [2] (Escherichia coli, read-out: E. coli DXR MICs, E. coli DH5α + (pET28::dxr)), 128 µg/mL. For the same molecule, the “MIC increase for cells expressing H. influenzae DXR” value in experiment [1] (E. coli cells (DH5α) expressing H. influenzae DXR) is listed as 16 fold. Also, the “MIC increase for cells overexpressing E. coli DXR” value in experiment [2] (E. coli cells (DH5α) overexpressing E. coli DXR) worked out at 8 fold.
